± gives the standard error.

From the supplement of paper PMC8960247 come the findings set out here.

For one test, the system named is 621-103 (TSC2-rescued). In words: relative viability vs DMSO; higher = less cytotoxic. To be noted: serum: 10% FBS, 72 h.
A further test deals with 621-102 (TSC2-deficient). Described as above. The settings on record: serum: 10% FBS, 72 h.
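Also: immortalized renal angiomyolipoma cells stably carrying empty vector or TSC2, dosed in 384-well plates in DMEM, viability normalized to vehicle-treated wells within each plate.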

With `N=C(N)NC(=N)N1CCOCC1` [Moroxydine], the relative viability was found to be 87.36 ± 0.38% in the test with 621-103 (TSC2-rescued) (0.0001 µM); 86.9 ± 5.6% in the test on 621-103 (TSC2-rescued) (0.001 µM); 96.1 ± 4.8% in the test on 621-103 (TSC2-rescued) (0.01 µM); 92.5 ± 0.95% in the test on 621-103 (TSC2-rescued) (0.1 µM); 92.6 ± 2.9% in the test on 621-103 (TSC2-rescued) (1 µM); 86.5 ± 2.3% with 621-103 (TSC2-rescued) (10 µM). For the same molecule, the relative viability in the test with 621-102 (TSC2-deficient) (0.0001 µM) came to 109 ± 1.8%; with 621-102 (TSC2-deficient) (0.001 µM), 111 ± 1.4%; in the test on 621-102 (TSC2-deficient) (0.01 µM), 111 ± 4.4%; with 621-102 (TSC2-deficient) (0.1 µM) it was 107 ± 1.3%; with 621-102 (TSC2-deficient) (1 µM), 109.9 ± 0.84%; with 621-102 (TSC2-deficient) (10 µM) it was 99.87 ± 0.55%.
Regarding `CC1(C)CNc2cc(NC(=O)c3cccnc3NCc3ccncc3)ccc21` [Motesanib DiPhosphate], the relative viability in the test on 621-103 (TSC2-rescued) (0.0001 µM) worked out at 94.7 ± 3.1%; in the test on 621-103 (TSC2-rescued) (0.001 µM), 102.6 ± 0.75%; in the test with 621-103 (TSC2-rescued) (0.01 µM), 102.5 ± 0.75%; in the test on 621-103 (TSC2-rescued) (0.1 µM) it was 102 ± 1.3%; in the test on 621-103 (TSC2-rescued) (1 µM), 93 ± 1.9%; in the test on 621-103 (TSC2-rescued) (10 µM) it was 98 ± 1.7%. Also, the relative viability with 621-102 (TSC2-deficient) (0.0001 µM) was 104 ± 1.8%; with 621-102 (TSC2-deficient) (0.001 µM), 119 ± 1.9%; in the test on 621-102 (TSC2-deficient) (0.01 µM) it was 115.2 ± 1.1%; in the test on 621-102 (TSC2-deficient) (0.1 µM) it was 110 ± 3%; with 621-102 (TSC2-deficient) (1 µM), 104 ± 2.7%; in the test with 621-102 (TSC2-deficient) (10 µM), 107 ± 2%.
Consider `FC(F)(F)c1ccc(/C=C/c2nc(COc3ccc(CCCCn4ccnn4)cc3)co2)cc1` [Mubritinib (TAK 165)], for which the relative viability is 112 ± 3.3% in the test on 621-103 (TSC2-rescued) (0.0001 µM); 106 ± 2% in the test with 621-103 (TSC2-rescued) (0.001 µM); 104 ± 2.1% with 621-103 (TSC2-rescued) (0.01 µM); 112 ± 1.4% in the test on 621-103 (TSC2-rescued) (0.1 µM); 107 ± 2.1% in the test on 621-103 (TSC2-rescued) (1 µM); 115 ± 1.7% with 621-103 (TSC2-rescued) (10 µM). The relative viability came out at 106 ± 3.2% in the test with 621-102 (TSC2-deficient) (0.0001 µM); 105.09 ± 0.037% in the test with 621-102 (TSC2-deficient) (0.001 µM); 97.5 ± 1.1% with 621-102 (TSC2-deficient) (0.01 µM); 103 ± 2.6% in the test with 621-102 (TSC2-deficient) (0.1 µM); 107 ± 1.2% in the test on 621-102 (TSC2-deficient) (1 µM); 110.2 ± 1.1% in the test with 621-102 (TSC2-deficient) (10 µM).
On to `CC(C)(C)c1[nH]cnc1/C=c1\[nH]c(=O)/c(=C/c2ccccc2)[nH]c1=O` [NPI-2358], for which the relative viability in the test on 621-103 (TSC2-rescued) (0.0001 µM) is 86.9 ± 4.1%; in the test on 621-103 (TSC2-rescued) (0.001 µM), 45.4 ± 0.88%; with 621-103 (TSC2-rescued) (0.01 µM), 62 ± 1.6%; with 621-103 (TSC2-rescued) (0.1 µM), 36.2 ± 0.99%; in the test with 621-103 (TSC2-rescued) (1 µM), 32.4 ± 0.92%; in the test with 621-103 (TSC2-rescued) (10 µM), 33.1 ± 0.41%. For the same molecule, the relative viability came to 88.4 ± 2.1% in the test on 621-102 (TSC2-deficient) (0.0001 µM); 50.4 ± 2% in the test with 621-102 (TSC2-deficient) (0.001 µM); 55.9 ± 1.8% with 621-102 (TSC2-deficient) (0.01 µM); 42 ± 0.5% in the test with 621-102 (TSC2-deficient) (0.1 µM); 36.5 ± 2% in the test with 621-102 (TSC2-deficient) (1 µM); 41.3 ± 2.3% in the test with 621-102 (TSC2-deficient) (10 µM).
`CC(C)(Cc1ccc2ccccc2c1)NC[C@@H](O)COc1cccc(Cl)c1C#N` [NPS-2143]: the relative viability in the test on 621-103 (TSC2-rescued) (0.0001 µM) amounted to 111 ± 4.1%; in the test on 621-103 (TSC2-rescued) (0.001 µM) it was 102 ± 2.2%; with 621-103 (TSC2-rescued) (0.01 µM) it was 107 ± 1.8%; in the test on 621-103 (TSC2-rescued) (0.1 µM), 114 ± 2.6%; in the test on 621-103 (TSC2-rescued) (1 µM) it was 106.7 ± 0.6%; in the test with 621-103 (TSC2-rescued) (10 µM) it was 1.29 ± 0.19%. Further, the relative viability in the test on 621-102 (TSC2-deficient) (0.0001 µM) came to 83.2 ± 5.7%; in the test with 621-102 (TSC2-deficient) (0.001 µM) it was 93.6 ± 6.1%; in the test on 621-102 (TSC2-deficient) (0.01 µM), 100 ± 2.8%; in the test with 621-102 (TSC2-deficient) (0.1 µM) it was 97.6 ± 1.3%; in the test on 621-102 (TSC2-deficient) (1 µM) it was 79.52 ± 0.42%; in the test with 621-102 (TSC2-deficient) (10 µM), 1 ± 0.14%.
Take `CCNC(=O)c1noc(-c2cc(C(C)C)c(O)cc2O)c1-c1ccc(CN2CCOCC2)cc1` [NVP-AUY922]: the relative viability came out at 17.5 ± 0.57% in the test with 621-103 (TSC2-rescued) (0.0001 µM); 6.795 ± 0.067% in the test with 621-103 (TSC2-rescued) (0.001 µM); 6.22 ± 0.57% in the test with 621-103 (TSC2-rescued) (0.01 µM); 5.21 ± 0.31% in the test with 621-103 (TSC2-rescued) (0.1 µM); 4.92 ± 0.055% in the test with 621-103 (TSC2-rescued) (1 µM); 6.99 ± 0.21% with 621-103 (TSC2-rescued) (10 µM). Besides, the relative viability in the test on 621-102 (TSC2-deficient) (0.0001 µM) turned out to be 35.4 ± 3.1%; in the test on 621-102 (TSC2-deficient) (0.001 µM), 33 ± 1.4%; in the test on 621-102 (TSC2-deficient) (0.01 µM), 22.2 ± 0.39%; in the test on 621-102 (TSC2-deficient) (0.1 µM), 20.32 ± 0.026%; in the test on 621-102 (TSC2-deficient) (1 µM) it was 23 ± 0.25%; in the test with 621-102 (TSC2-deficient) (10 µM), 21.6 ± 1.3%.
For the molecule `CCNC(=O)c1cc2c(-c3cc(OCCN4CCCC4)c(Cl)cc3Cl)nc(N)nc2s1` [NVP-BEP800], the relative viability in the test with 621-103 (TSC2-rescued) (0.0001 µM) amounted to 101 ± 2.1%; with 621-103 (TSC2-rescued) (0.001 µM) it was 99.72 ± 0.67%; in the test with 621-103 (TSC2-rescued) (0.01 µM) it was 99.48 ± 0.53%; with 621-103 (TSC2-rescued) (0.1 µM) it was 107 ± 2%; with 621-103 (TSC2-rescued) (1 µM), 43.99 ± 0.26%; in the test with 621-103 (TSC2-rescued) (10 µM), 4.6 ± 0.3%. In addition, the relative viability in the test with 621-102 (TSC2-deficient) (0.0001 µM) turned out to be 97.39 ± 0.18%; in the test on 621-102 (TSC2-deficient) (0.001 µM), 102 ± 6.3%; in the test on 621-102 (TSC2-deficient) (0.01 µM), 107 ± 5.5%; in the test with 621-102 (TSC2-deficient) (0.1 µM), 102 ± 1.2%; in the test on 621-102 (TSC2-deficient) (1 µM), 56.1 ± 4%; with 621-102 (TSC2-deficient) (10 µM) it was 19.3 ± 1.1%.
